These results are taken from ChEMBL document CHEMBL5303573, “Mapping human microbiome drug metabolism by gut bacteria and their genes” (Nature, 2019).

Data set [1] is described as follows: The drug is tested on Providencia rettgeri strain: DSM1131 for biotransformation. The drug concentrations were measured before and after a 12-h incubation by liquid-chromatography-coupled mass spectrometry (LC–MS). As to conditions: 2 µM. The data set is classed as ADME. Also noted: dose 2 uM, timepoint 0 vs 12 hours.
Data set [2] in a line: The drug is tested on Clostridium scindens strain: ATCC35704 for biotransformation. The drug concentrations were measured before and after a 12-h incubation by liquid-chromatography-coupled mass spectrometry (LC–MS). As to conditions: 2 µM.
The conditions of data set [3]: bacteroides fragilis, 12 h, 2 µM.
Description: The drug is tested on Bacteroides fragilis strain: NCTC 9343 for biotransformation. The drug concentrations were measured before and after a 12-h incubation by liquid-chromatography-coupled mass spectrometry (LC–MS)
Data set [4] is described as follows: The drug is tested on Anaerotruncus colihominis strain: DSM17241 for biotransformation. The drug concentrations were measured before and after a 12-h incubation by liquid-chromatography-coupled mass spectrometry (LC–MS). To be noted: 2 µM.
For data set [5] the following is noted: bacteroides intestinalis, 12 h, 2 µM.
Description: The drug is tested on Bacteroides intestinalis strain: DSM17393 for biotransformation. The drug concentrations were measured before and after a 12-h incubation by liquid-chromatography-coupled mass spectrometry (LC–MS)
The conditions of data set [6]: bacteroides thetaiotaomicron, 12 h, 2 µM.
Description: The drug is tested on Bacteroides thetaiotaomicron strain: VPI-5482 for biotransformation. The drug concentrations were measured before and after a 12-h incubation by liquid-chromatography-coupled mass spectrometry (LC–MS)
The conditions of data set [7]: parabacteroides johnsonii, 12 h, 2 µM.
Description: The drug is tested on Parabacteroides johnsonii strain: DSM18315 for biotransformation. The drug concentrations were measured before and after a 12-h incubation by liquid-chromatography-coupled mass spectrometry (LC–MS)
The conditions of data set [8]: bacteroides fragilis, 12 h, 2 µM. The source holds these as a separate data set.
Description: The drug is tested on Bacteroides fragilis strain: DS-208 for biotransformation. The drug concentrations were measured before and after a 12-h incubation by liquid-chromatography-coupled mass spectrometry (LC–MS)
Data set [9] can be described thus: The drug is tested on Bacteroides vulgatus strain: ATCC8482 for biotransformation. The drug concentrations were measured before and after a 12-h incubation by liquid-chromatography-coupled mass spectrometry (LC–MS). To be noted: phocaeicola vulgatus, 2 µM.
For data set [10] the following is noted: bacteroides stercoris, 12 h, 2 µM.
Description: The drug is tested on Bacteroides stercoris strain: ATCC43183 for biotransformation. The drug concentrations were measured before and after a 12-h incubation by liquid-chromatography-coupled mass spectrometry (LC–MS)
Data set [11] in a line: The drug is tested on Parabacteroides merdae strain: ATCC43184 for biotransformation. The drug concentrations were measured before and after a 12-h incubation by liquid-chromatography-coupled mass spectrometry (LC–MS). As to conditions: 2 µM.
A short description of data set [12]: The drug is tested on Bacteroides pectinophilus strain: ATCC43243 for biotransformation. The drug concentrations were measured before and after a 12-h incubation by liquid-chromatography-coupled mass spectrometry (LC–MS). As to conditions: 2 µM.
The conditions of data set [13]: bacteroides eggerthii, 12 h, 2 µM.
Description: The drug is tested on Bacteroides eggerthii strain: DSM20697 for biotransformation. The drug concentrations were measured before and after a 12-h incubation by liquid-chromatography-coupled mass spectrometry (LC–MS)
Data set [14] can be described thus: The drug is tested on Bacteroides xylanisolvens strain: DSM18836 for biotransformation. The drug concentrations were measured before and after a 12-h incubation by liquid-chromatography-coupled mass spectrometry (LC–MS). As to conditions: 2 µM.
The nature of data set [15]: The drug is tested on Collinsella intestinalis strain: DSM13280 for biotransformation. The drug concentrations were measured before and after a 12-h incubation by liquid-chromatography-coupled mass spectrometry (LC–MS). To be noted: 2 µM.
Data set [16] is described as follows: The drug is tested on Bifidobacterium longum subsp. Infantis strain: CCUG52486 for biotransformation. The drug concentrations were measured before and after a 12-h incubation by liquid-chromatography-coupled mass spectrometry (LC–MS). As to conditions: 2 µM.
For data set [17] the following is noted: bacteroides thetaiotaomicron, 12 h, 2 µM. The source holds these as a separate data set.
Description: The drug is tested on Bacteroides thetaiotaomicron strain: 3731 for biotransformation. The drug concentrations were measured before and after a 12-h incubation by liquid-chromatography-coupled mass spectrometry (LC–MS)
For data set [18] the following is noted: bacteroides thetaiotaomicron, 12 h, 2 µM. This is another data set of the same source.
Description: The drug is tested on Bacteroides thetaiotaomicron strain: 7330 for biotransformation. The drug concentrations were measured before and after a 12-h incubation by liquid-chromatography-coupled mass spectrometry (LC–MS)
The nature of data set [19]: The drug is tested on Ruminococcus lactaris strain: ATCC29176 for biotransformation. The drug concentrations were measured before and after a 12-h incubation by liquid-chromatography-coupled mass spectrometry (LC–MS). To be noted: 2 µM.

On to `COC(=O)Nc1nc2ccc(C(=O)c3ccccc3)cc2[nH]1` [MEBENDAZOLE], for which the “Bacterial Biotransformation” value was “Compound NOT metabolized” in [1]; “Compound NOT metabolized” in data set [2]; “Compound metabolized” in [3]; “Compound NOT metabolized” in [4]; “Compound NOT metabolized” in [5]; “Compound metabolized” in [6]. Further, the “Bacterial Biotransformation” value in [7] is recorded as “Compound NOT metabolized”; in data set [8], “Compound metabolized”; in [9], “Compound metabolized”; in data set [10] it was “Compound metabolized”; in data set [11] it was “Compound NOT metabolized”; in [12], “Compound NOT metabolized”. Besides, the “Bacterial Biotransformation” value was “Compound metabolized” in [13]; “Compound metabolized” in data set [14]; “Compound NOT metabolized” in data set [15]; “Compound NOT metabolized” in [16]; “Compound NOT metabolized” in [17].
`CN(C)C(=O)Oc1cccc([N+](C)(C)C)c1.[Br-]` [NEOSTIGMINE BROMIDE]: the “Bacterial Biotransformation” value is given as “Compound NOT metabolized” in data set [1]; “Compound NOT metabolized” in data set [2]; “Compound metabolized” in data set [3]; “Compound NOT metabolized” in [4]; “Compound NOT metabolized” in [5]; “Compound metabolized” in [6]. The “Bacterial Biotransformation” value in data set [7] was “Compound NOT metabolized”; in [18], “Compound metabolized”; in data set [8], “Compound metabolized”; in [19] it was “Compound NOT metabolized”; in data set [10], “Compound NOT metabolized”; in data set [11], “Compound metabolized”. Moreover, the “Bacterial Biotransformation” value in [12] is “Compound NOT metabolized”; in [15], “Compound NOT metabolized”; in data set [16] it was “Compound NOT metabolized”; in data set [17], “Compound metabolized”.
With `Cc1cc2c(s1)Nc1ccccc1N=C2N1CCN(C)CC1` [OLANZAPINE], the “Bacterial Biotransformation” value in [1], in data set [2], in data set [3], in data set [4], in [5] and in data set [7] was “Compound NOT metabolized” each time. Moreover, the “Bacterial Biotransformation” value in data set [18], in [8], in data set [19], in data set [9], in data set [10] and in data set [12] was “Compound NOT metabolized” throughout. Besides, the “Bacterial Biotransformation” value in data set [13], in data set [14], in data set [15], in [16] and in data set [17] was “Compound NOT metabolized” in each case.
As for `CN1CCOC(c2ccccc2)c2ccccc2C1` (stereo not drawn) [NEFOPAM], the “Bacterial Biotransformation” value in [1], in [2], in [3], in data set [4], in [5] and in data set [6] was “Compound NOT metabolized” in each case. For the same compound, the “Bacterial Biotransformation” value in data set [7], in data set [18], in data set [8], in data set [19], in [10] and in data set [11] was “Compound NOT metabolized” in each case. Besides, the “Bacterial Biotransformation” value in data set [12], in data set [13], in data set [14], in [15], in [16] and in data set [17] was “Compound NOT metabolized” throughout.
Turning to `CN1CCC(=C2c3ccccc3CC(=O)c3sccc32)CC1.O=C(O)/C=C/C(=O)O` [KETOTIFEN FUMARATE], the “Bacterial Biotransformation” value in [1], in data set [2], in data set [3], in data set [4], in [5] and in [6] was “Compound NOT metabolized” each time. The “Bacterial Biotransformation” value in data set [7], in data set [18], in data set [8], in data set [19], in data set [10] and in data set [11] was “Compound NOT metabolized” in each case. Further, the “Bacterial Biotransformation” value in data set [12], in data set [13], in data set [14], in [15], in [16] and in data set [17] was “Compound NOT metabolized” throughout.
As to `COc1cc2nc(N3CCN(C(=O)C4COc5ccccc5O4)CC3)nc(N)c2cc1OC.CS(=O)(=O)O` (stereo not drawn) [DOXAZOSIN MESYLATE], the “Bacterial Biotransformation” value in data set [1], in [2], in data set [3], in data set [4], in data set [5] and in data set [6] was “Compound NOT metabolized” throughout. Besides, the “Bacterial Biotransformation” value in data set [7], in data set [18], in [8], in [19], in data set [10] and in data set [11] was “Compound NOT metabolized” in each case. The “Bacterial Biotransformation” value in data set [12], in [13], in data set [15] and in data set [17] was “Compound NOT metabolized” throughout.
On to `CN1C(=O)CC(C)(c2ccccc2)C1=O` (stereo not drawn) [METHSUXIMIDE], for which the “Bacterial Biotransformation” value in data set [1], in data set [2], in data set [3], in data set [4], in data set [5] and in data set [6] was “Compound NOT metabolized” in each case. The “Bacterial Biotransformation” value in [7], in data set [18], in [8], in data set [10], in data set [11] and in data set [13] was “Compound NOT metabolized” in each case. Further, the “Bacterial Biotransformation” value in data set [14], in data set [15], in [16] and in [17] was “Compound NOT metabolized” each time.
